Several values for one entry are separate records, joined by “and”; a condition that tells them apart may be missing. Equal values may be shown once. Read-outs that look alike come from different tables or passages of the source.
Assays:
human Dock5 = target: T1, human Dock5 (Homo sapiens, UniProt Q9H7D0); experiment: Pull down assay of Rac activation by human Dock5 DHR2 in transfected 293T cells; format: cell-based; conditions: for inhibition at 50 µM / inhibition at 100 µM: HEK-293T; for IC50: 1 hour treatment
T1 construct: plasmid expressing the catalytic DHR2 domain of mouse or human Dock5; expressed in transfected cells; host or cells: 293T cells
Method: (§1) Compounds E73, E88 and E78 were tested for their inhibiting effect of the activation of Rac by mouse Dock5 of and for certain human Dock5 according to a screening test using a pull down assay as represented in Figure 1.
Methodology (Figure 1): cells 293T seeded onto 100 mm diameter plates in a DMEM culture medium containing 10% serum in an incubator in 5.5% CO2 humidified atmosphere at 37°C. When they reach the density of 5x10^6 cells per plate, cells are transfected with 8 µg of plasmid expressing the catalytic DHR2 domain of mouse or human Dock5 in order to activate endogenous GTPase Rac. After 24 hours, the cells are lifted using trypsin and are seeded 10^6 per well in 6-well plates of 35 mms in diameter. The following day, the cells are put in contact during one hour with the compound, in a mother solution at 20 mM into 100% DMSO, to a test concentration of 100 µM into 0.5% DMSO in the DMEM medium containing 0.1% of BSA. The basal activation of Rac by Dock5 is measured from the cells treated with 0.5% DMSO. After treatment, the cells are observed under the optical microscope to make sure of the absence of any toxic effect of the compound. If cell suffering is detected, the test is invalidated and the compound is retested at a lower dosage. The cells are then lysed in 100 µl of the pull down buffer (10% glycerol, 50 mm Tris pH 7.4, 100 mM NaCl, 1% IGEPAL® CA-630 (SIGMA I3021), 2 mM MgCl2 supplemented with proteases inhibitors) and the lysate is incubated during one hour with 20 µg of sepharose beads coupled with the fusion protein GST-PAK-CRIB, which binds specifically the activated form of GTPase Rac, which is bound to GTP. After centrifugation and washings, the proteins associated with the beads, including active Rac GTPase, are denatured and loaded on an SDS PAGE gel. […] For each compound tested, the level of active Rac GTPase is quantified using the Image J software and is normalized to the concentration of total protein in the whole cell lysate. The efficiency of the molecule is defined by the level of active Rac after treatment compared to the level of active Rac in the cells treated with DMSO (control). An activity is considered as inhibitory if the level of Rac activation decreases by at least 10%, 20%, in particular at least 30%, 40%, and preferably at least 50% compared to the control treated with DMSO (Table 1).
The same approach was used to test the potency of molecules of the 48ED family, on the activity of human Dock5 DHR2 (Table 2). Table 2: Inhibitory activity of the compounds of the 48ED family on human Dock5 activity.

[1] = target: T2, Dbl exchange domain of TRIO (Homo sapiens, UniProt O75962); experiment: In vitro Rac1 nucleotide exchange (mantGDP fluorescence) with purified recombinant proteins, TRIO; format: biochemical; conditions: inhibitor 20 and 60 µM
T2 construct: catalyzed by the DHR2 exchange domain of Dock5 or by the Dbl exchange domain of TRIO; made in house; host or cells: E. coli
Method: (§2) The effect of the molecules has been tested on the nucleotide exchange reaction by the GTPase Rac1 catalyzed by the DHR2 exchange domain of Dock5 or by the Dbl exchange domain of TRIO, using purified recombinant proteins produced in E. coli bacteria (Vives, Cres et al., 2015).
(§3) The activity of the inhibitors is measured by fluorescence spectroscopy on 96-well plates with a FlexStation 3 fluorimeter, in a reaction volume of 150 µL, without stirring, at a temperature of 26 ° C. Each plate contains 4 inhibitors at two concentrations (20 and 60 µM), 2 GEFs (DOCK5 and TRIO) and includes controls without inhibitor (1% final DMSO). The inhibitors are diluted to DMSO at an intermediate concentration of 2 or 6 mM, ie 1% final DMSO. Rac1-mantGDP (2 µM), DOCK5 or TRIO (0,2 µM) and the inhibitors are mixed immediately before the beginning of measurements. The exchange reaction is triggered by series of 8 wells in parallel by addition of 100 µM of GTP with mixing by pipetting (Flex mode). The kinetics is followed during 800 seconds. All the measurements are made in duplicate on the same plate. The total playing time of a plate is about 80 minutes. The kinetics of exchange are analyzed with a mono-exponential model F = F0 + ΔFe - kt with the KaleidaGraph ™ software, where F0 is the initial fluorescence and k (or kobs) is the exchange rate constant.

[2] = target: T3, DHR2 exchange domain of Dock5 (Homo sapiens, UniProt Q9H7D0); experiment: In vitro Rac1 nucleotide exchange (mantGDP fluorescence) with purified recombinant proteins, Dock5; format: biochemical; conditions: inhibitor 20 and 60 µM
T3 construct: catalyzed by the DHR2 exchange domain of Dock5 or by the Dbl exchange domain of TRIO; made in house; host or cells: E. coli
Method: as §2, §3

[3] = cited from earlier work
ovariectomized mice = experiment: Bone dynamics parameters in ovariectomized mice; format: in vivo, mouse; conditions: OVX mice
Method: The ovariectomized mouse was used as an in vivo model of pathological bone loss. […] Each group contained ten female C57BL/6J mice that were fourteen weeks of age at the beginning of in-life phase of the study. At the beginning of the in-life phase (at study day 0), mice were weighed and their surgical ovariectomy (OVX) and control (SHAM) operations were performed under analgesia and anaesthesia. […] was injected intra peritoneally (i.p.) to OVX animals, 20 mg/kg once (q.d., dose 1) or twice (b.i.d., dose 2) daily for 25 days, in a vehicle solution containing 0.485% carboxymethylcellulose (CMC) and 3% Tween 80. Control mice received the same volume of vehicle. The effects of treatment with reference compound zoledronate (100 μg/kg, subcutaneously, twice a week.) were studied by comparing OVX mice treated with zoledronate and vehicle with OVX control mice treated with vehicle. At study days 21 and 26, bone was labelled with subcutaneous injections of oxytetracycline and calcein green, respectively, in order to enable the analysis of optional dynamic parameters in bone histomorphometry. Blood for serum samples were harvested from saphenous vein at days -1, 13 and 27 of the study for bone dynamics marker dosage.

mouse Dock5 = target: T4, mouse Dock5 (Mus musculus, UniProt B2RY04); experiment: Pull down assay of Rac activation by mouse Dock5 DHR2 in transfected 293T cells; format: cell-based
T4 construct: plasmid expressing the catalytic DHR2 domain of mouse or human Dock5; expressed in transfected cells; host or cells: 293T cells
Method: as §1
Methodology (Figure 1): cells 293T seeded onto 100 mm diameter plates in a DMEM culture medium containing 10% serum in an incubator in 5.5% CO2 humidified atmosphere at 37°C. When they reach the density of 5x10^6 cells per plate, cells are transfected with 8 µg of plasmid expressing the catalytic DHR2 domain of mouse or human Dock5 in order to activate endogenous GTPase Rac. After 24 hours, the cells are lifted using trypsin and are seeded 10^6 per well in 6-well plates of 35 mms in diameter. The following day, the cells are put in contact during one hour with the compound, in a mother solution at 20 mM into 100% DMSO, to a test concentration of 100 µM into 0.5% DMSO in the DMEM medium containing 0.1% of BSA. The basal activation of Rac by Dock5 is measured from the cells treated with 0.5% DMSO. […] If cell suffering is detected, the test is invalidated and the compound is retested at a lower dosage. […] For each compound tested, the level of active Rac GTPase is quantified using the Image J software and is normalized to the concentration of total protein in the whole cell lysate. […]

[4] = zoledronate 100 µg/kg, subcutaneously, twice a week, study day 28, vs OVX vehicle
[5] = Table 2, human Dock5 DHR2, test concentration 100 µM, 1 hour, replicate values, Negative = Rac activation does not decrease, 100 µM
[6] = Table 3, human Dock5, test concentration 100 µM, 1 hour, replicate values, 100 µM
[7] = 20 mg/kg, i.p., b.i.d., first two weeks of in-life phase, vs OVX vehicle
[8] = 20 mg/kg, i.p., q.d. and b.i.d., study day 28, vs OVX vehicle
[9] = 20 mg/kg, i.p., q.d. and b.i.d, study day 28
[10] = Table 3, human Dock5, test concentration 100 µM, 1 hour, replicate values, read-out: Inhibition
[11] = Table 2, human Dock5 DHR2, test concentration 100 µM, 1 hour, replicate values, Negative = Rac activation does not decrease, read-out: Inhibition

T1 sequence (Q9H7D0 1231-1642 limits assumed): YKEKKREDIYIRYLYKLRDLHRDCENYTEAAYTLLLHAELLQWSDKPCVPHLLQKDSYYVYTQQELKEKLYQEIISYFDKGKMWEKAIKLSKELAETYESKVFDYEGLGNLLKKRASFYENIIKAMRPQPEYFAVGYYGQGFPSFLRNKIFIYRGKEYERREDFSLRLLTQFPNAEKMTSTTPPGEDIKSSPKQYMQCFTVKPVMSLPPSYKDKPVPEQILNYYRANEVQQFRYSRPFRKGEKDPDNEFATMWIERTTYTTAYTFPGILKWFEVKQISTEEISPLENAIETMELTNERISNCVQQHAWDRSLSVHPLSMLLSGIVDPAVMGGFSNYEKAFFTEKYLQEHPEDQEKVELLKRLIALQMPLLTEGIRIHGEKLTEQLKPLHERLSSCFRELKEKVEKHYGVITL
T4 sequence (B2RY04 1231-1642 limits assumed): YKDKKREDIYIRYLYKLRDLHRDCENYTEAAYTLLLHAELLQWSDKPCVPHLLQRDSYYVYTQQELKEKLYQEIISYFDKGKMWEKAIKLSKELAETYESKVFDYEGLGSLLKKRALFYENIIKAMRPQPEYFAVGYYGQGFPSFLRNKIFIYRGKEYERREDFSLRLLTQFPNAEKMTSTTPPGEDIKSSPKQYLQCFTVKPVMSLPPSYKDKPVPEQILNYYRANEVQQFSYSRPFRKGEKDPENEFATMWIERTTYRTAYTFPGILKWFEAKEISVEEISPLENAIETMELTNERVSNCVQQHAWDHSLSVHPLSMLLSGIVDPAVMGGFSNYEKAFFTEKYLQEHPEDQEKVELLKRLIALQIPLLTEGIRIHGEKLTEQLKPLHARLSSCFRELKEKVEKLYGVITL
T3 sequence (Q9H7D0 1231-1642 limits assumed): as the sequence (Q9H7D0 1231-1642 limits assumed) above

O=S1(=O)N(c2ccccc2)C[C@H](O)[C@]12CCN(Cc1ccc(Cl)c(Cl)c1)C2 (racemic) [E202, rac-(4S,5R)-7-(3,4-dichlorobenzyl)-4-hydroxy-2-phenyl-1-thia-2,7-diazaspiro[4.4]nonane 1,1-dioxide]
inhibition at 50 µM (human Dock5; Table 3, human Dock5, at 50µM): 95% | Inhibition (human Dock5; Table 3, human Dock5, at 50µM): 90% | IC50 (human Dock5; human Dock5): 29 µM | effect on the nucleotide exchange reaction of Rac1 catalyzed by TRIO [1]: not TRIO | effect on the nucleotide exchange reaction of Rac1 catalyzed by Dock5 [2]: inhibit Dock 5

O=S(=O)(Nc1cc(Cl)cc(Cl)c1)c1ccccc1 [C21, N-(3,5-dichlorophenyl)-benzenesulfonamide]
bone formation ([3]; mice treated daily along 4 weeks): Bone formation is maintained | histological observation of all tissues ([3]; mice): did not reveal any anomaly | development of bone metastases ([3]; mouse): reduces the development of bone metastases | bone resorption ([3]; mouse, postmenopausal osteoporosis, inflammatory and metastasis-induced bone loss models, intravenous or intraperitoneal administration): inhibits effectively the bone resorption

O=P(O)(O)C(O)(Cn1ccnc1)P(=O)(O)O [Zoledronate, reference compound]
relative change in serum osteoclacin levels (ovariectomized mice; zoledronate 100 µg/kg, subcutaneously, twice a week, in-life phase, vs OVX vehicle): decreased | mineral apposition rate (MAR) in trabecular bone in femoral metaphysis (ovariectomized mice; [4]): decreased | mineralizing surface per bone surface (MS/BS) in trabecular bone in femoral metaphysis (ovariectomized mice; [4]): decreased

O=S1(=O)N(c2ccccc2)C[C@H](O)[C@]12CCN(Cc1cccc(Cl)c1)C2 [E73]
inhibition at 100 µM (human Dock5; Table 1a, test concentration 100 µM, 1 hour, replicate values, Negative = Rac activation does not decrease, read-out: Inhibition Dock5 (%) Human): 70% | Inhibition Dock5 (%) Human (human Dock5; Table 1a, test concentration 100 µM, 1 hour, replicate values, Negative = Rac activation does not decrease, 100 µM): 60% and 55% | Inhibition (human Dock5; [5]): 55% and 95% (3×) and 50% and 90% (2×) | IC50 (human Dock5; human Dock5): 36 µM | inhibition at 100 µM (mouse Dock5; HEK-293T, 100 µM, species of Dock5 not given): ~95% | IC50 (mouse Dock5; mouse DHR2 of Dock5): 17 µM

O=S1(=O)N(c2ccccc2)C[C@H](O)[C@]12CCN(Cc1ccc(Cl)cc1)C2 (racemic) [E197, rac-(4S,5R)-7-(4-chlorobenzyl)-4-hydroxy-2-phenyl-1-thia-2,7-diazaspiro[4.4]nonane 1,1-dioxide]
inhibition at 50 µM (human Dock5; Table 3, human Dock5, at 50µM): 80% | Inhibition (human Dock5; [6]): 55% and 90% | IC50 (human Dock5; human Dock5): 36 µM | effect on the nucleotide exchange reaction of Rac1 catalyzed by TRIO [1]: not TRIO | trabecular separation (Tb.Sp) (ovariectomized mice; 20 mg/kg, i.p., b.i.d., bone histomorphometry, study day 28, vs OVX vehicle): decreased | relative change in serum PINP levels (ovariectomized mice; 20 mg/kg, i.p., b.i.d., entire in-life phase, vs OVX vehicle): decreased | relative change in serum CTX-I levels (ovariectomized mice; [7]): decreased | relative change in serum PINP levels (ovariectomized mice; [7]): decreased | trabecular bone volume fraction (BV/TV) in femoral and tibial metaphyses (ovariectomized mice; 20 mg/kg, i.p., b.i.d., study day 28, vs OVX vehicle): increased | trabecular number (Tb.N) in tibial metaphysis (ovariectomized mice; 20 mg/kg, i.p., b.i.d., µCT, study day 28, vs OVX vehicle): increased | serum levels of bone turnover biomarker osteoclacin (ovariectomized mice; 20 mg/kg, i.p., q.d. and b.i.d., entire in-life phase): did not decreased | cortical bone specific surface (BS/BV) in tibial diaphysis (ovariectomized mice; [8]): decreased | cortical thickness (Ct.Th) in tibial diaphysis (ovariectomized mice; [8]): increased | mineral apposition rate (MAR) in trabecular bone in femoral metaphysis (ovariectomized mice; [9]): did not decreased | mineralizing surface per bone surface (MS/BS) in trabecular bone in femoral metaphysis (ovariectomized mice; [9]): did not decreased | body weight (ovariectomized mice; in-life phase (day 0 to day 28)): did not affect body weight | effect on the nucleotide exchange reaction of Rac1 catalyzed by Dock5 [2]: inhibit Dock 5

O=C1N(c2cccc(F)c2)CCC12CCN(Cc1cccc(Cl)c1)C2 (stereo not shown) [E226, 7-(3-chlorobenzyl)-2-(3-fluorophenyl)-2,7-diazaspiro[4.4]nonan-1-one]
inhibition at 50 µM (human Dock5; Table 3, human Dock5, at 50µM): 55% | IC50 (human Dock5; human Dock5): 20 µM

O=S1(=O)N(c2ccccc2)C[C@H](O)[C@]12CCN(Cc1cccs1)C2 [E208]
inhibition at 100 µM (human Dock5; [10]): 35%

CO[C@H]1CN(Cc2ccccc2)S(=O)(=O)[C@@]12CCN(Cc1ccccc1)C2 [E225]
inhibition at 100 µM (human Dock5; [10]): 35%

O=S1(=O)N(c2ccccc2)C[C@H](O)[C@]12CCN(CCc1ccccc1)C2 [E217]
inhibition at 100 µM (human Dock5; [11]): 25%

CS(=O)(=O)N1CC[C@@]2(C1)[C@@H](O)CN(c1ccccc1)S2(=O)=O [E138]
inhibition at 100 µM (human Dock5; [11]): 30%

Cc1noc(C)c1CN1CC[C@@]2(C1)[C@@H](O)CN(c1ccccc1)S2(=O)=O [E199]
inhibition at 100 µM (human Dock5; [10]): 40% | Inhibition (human Dock5; Table 3, human Dock5, test concentration 100 µM, 1 hour, replicate values): 40% / 40%

O=S1(=O)N(C2CCCCC2)C[C@@H](O)[C@]12CCN(Cc1ccccc1)C2 [E234]
Inhibition (human Dock5; [6]): 85% and 55% and 40% and 60%

N#Cc1ccc(CN2CC[C@@]3(C2)[C@@H](O)CN(c2ccccc2)S3(=O)=O)cc1 [E129]
Inhibition (human Dock5; [5]): 70% and 90% and 95%

CS(=O)(=O)c1ccc(CN2CC[C@@]3(C2)[C@@H](O)CN(c2ccccc2)S3(=O)=O)cc1 [E131]
Inhibition (human Dock5; [5]): 50% and 70% and 90%

From patent publication EP3553061A1, “NEW INHIBITORS OF BONE RESORPTION” (CENTRE NATIONAL DE LA RECHERCHE SCIENTIFIQUE (CNRS), priority 2018, dated 2019)
